Laboratory results taken from US20240368125A1, “NOVEL PYRAZINYL-TRIAZOLE COMPOUNDS AS PESTICIDES” (Bayer Aktiengesellschaft, priority 2021, published 2024).

Experiments:
Type in all cases: in vivo
[1] = system: adult brown dog ticks (Rhipicephalus sanguineus); assay: Rhipicephalus sanguineus in-vitro contact test, adult brown dog ticks; settings: 1 μg/cm^2 (=100 g/ha), after 48 hours
Experimental: Rhipicephalus sanguineus—In-Vitro Contact Tests with Adult Brown Dog Ticks
(§1) 9 mg compound is solved in 1 mL acetone and diluted with acetone to the desired concentration. 250 μL of the test solution is filled in 25 mL glass test tubes and homogeneously distributed on the inner walls by rotation and tilting on a shaking device (2 h at 30 rpm). With a compound concentration of 900 ppm, an inner surface of 44.7 cm^2 and a homogeneous distribution, a dose of 5 μg/cm^2 is achieved.
After the solvent has evaporated, each test tube is filled with 5-10 adult brown dog ticks (Rhipicephalus sanguineus), closed with a perforated lid and incubated in a lying position at room temperature and relative humidity. After 48 hours efficacy is determined. The ticks are patted on the ground of the tubes and are incubated on a heating plate at 45-50° C. for at most 5 minutes. Immotile or uncoordinated moving ticks, which are not able to escape the heat by climbing upwards, are marked as dead or moribund.
An efficacy of 100% means all ticks are dead or moribund; 0% means no ticks are dead or moribund.

[2] = system: Rhipicephalus (Boophilus) microplus larvae (strain Parkhurst, resistant against synthetic pyrethroids); assay: Rhipicephalus (Boophilus) microplus in-vitro contact test, larval cattle tick; settings: 1 μg/cm^2 (=100 g/ha), after 48 hours; for pest or weed control at 1 µg/cm2: Rhipicephalus microplus, read-out: efficacy (larvae dead or moribund)
Experimental: Rhipicephalus (Boophilus) Microplus—In-Vitro Contact Tests Larval Cattle Tick (Strain Parkhurst, Resistant Against Synthetic Pyrethroids
as §1
After the solvent has evaporated, each test tube is filled with 20-50 cattle tick larvae (Rhipicephalus microplus), closed with a perforated lid and incubated in a horizontal position at 85% relative humidity and 27° C. in an incubator. After 48 hours efficacy is determined. The larvae are patted on the ground of the tubes and negative geotactic behavior is recorded.

[3] = system: adult cat fleas (Ctenocephalides felis); assay: Ctenocephalides felis in-vitro contact test, adult cat flea; settings: 1 μg/cm^2 (=100 g/ha), after 48 hours
Experimental: Ctenocephalides Felis—In-Vitro Contact Tests Adult Cat Flea
as §1
After the solvent has evaporated, each test tube is filled with 5-10 adult cat fleas (Ctenocephalides felis), closed with a perforated lid and incubated in a lying position at room temperature and relative humidity. After 48 hours efficacy is determined. The fleas are patted on the ground of the tubes and are incubated on a heating plate at 45-50° C. for at most 5 minutes. Immotile or uncoordinated moving fleas, which are not able to escape the heat by climbing upwards, are marked as dead or moribund.
An efficacy of 100% means all fleas are dead or moribund; 0% means no fleas are dead or moribund.

[4] = system: larvae of the banded cucumber beetle (Diabrotica balteata); assay: Diabrotica balteata spray test; settings: 100 g/ha (=32 μg/well), wheat seeds, after 7 days
Experimental: Diabrotica balteata—Spray Test
Solvent: 78.0 parts by weight of acetone • • 1.5 parts by weight of dimethylformamide
(§2) Emulsifier: alkylarylpolyglycol ether
To produce a suitable preparation of active compound, 1 part by weight of active compound is mixed with the stated amount of solvent, and the concentrate is diluted with water, containing an emulsifier concentration of 1000 ppm, to the desired concentration. Further test concentrations are prepared by dilution with emulsifier containing water.
Soaked wheat seeds (Triticum aestivum) are placed in a multiple well plate filled with agar and some water and are incubated for 1 day to germinate (5 seeds per well). The germinated wheat seeds are sprayed with a test solution containing the desired concentration of the active ingredient. Afterwards each unit is infected with 10-20 larvae of the banded cucumber beetle (Diabrotica balteata).
After 7 days efficacy in % is determined. 100% means all the seedlings have grown up like in the untreated, uninfected control; 0% means none of the seedlings have grown.

[5] = system: fall armyworm larvae (Spodoptera frugiperda); assay: Spodoptera frugiperda spray test (SPODFR); settings: in Zea mays, 168 h
Experimental: Spodoptera frugiperda—Spray Test
Solvent: 78.0 parts by weight acetone • 1.5 parts by weight dimethylformamide
as §2
To produce a suitable preparation of active compound, 1 part by weight of active compound is mixed with the stated amount of solvents and is diluted with water, containing an emulsifier concentration of 1000 ppm, to the desired concentration. Further test concentrations are prepared by dilution with emulsifier containing water.
Maize (Zea mays) leaf sections are sprayed with a preparation of the active ingredient of the desired concentration. Once dry, the leaf sections are infested with fall armyworm larvae (Spodoptera frugiperda).
After 7 days mortality in % is determined. 100% means all caterpillars have been killed and 0% means none of the caterpillars have been killed.
Spodoptera frugiperda—Spray Test (SPODFR
After the specified period of time, mortality in % is determined. 100% means all caterpillars have been killed and 0% means none of the caterpillars have been killed.

Row | Structure (SMILES) | efficacy (larvae dead or moribund) [2] [%] | efficacy (seedlings grown) [4] [%] | further results
1 | CCN(C)C(=O)c1cnc(-n2nc(C)nc2[C@H](C)NC(=O)c2cc(OC(F)(F)F)cc(OC(F)(F)F)c2)cn1 [Example I-038] | 100 | 100 | efficacy (ticks dead or moribund) [1]: 100%; efficacy (fleas dead or moribund) [3]: 100%
2 | CNC(=O)c1cnc(-n2ncnc2[C@H](C)NC(=O)c2cc(Cl)cc(S(C)(=O)=O)c2)cn1 [Example I-098] | 100 |  | 
3 | Cc1nc([C@H](C)NC(=O)c2cc(OC(F)(F)F)cc(S(C)(=O)=O)c2)n(-c2cnc(C(=O)N(C)C3CC3)cn2)n1 [Example I-040] | 100 |  | efficacy (ticks dead or moribund) [1]: 100%; efficacy (fleas dead or moribund) [3]: 100%
4 | C[C@H](NC(=O)c1cc(OC(F)(F)F)cc(OC(F)(F)F)c1)c1ncnn1-c1cnc(C(=O)NC2CC2)cn1 [Example I-024] | 100 | 100 | efficacy (ticks dead or moribund) [1]: 100%
5 | C[C@H](NC(=O)c1cc(OC(F)(F)F)cc(OC(F)(F)F)c1)c1nc(C2CC2)nn1-c1cnc(C(=O)N(C)C)cn1 [Example I-027] |  |  | mortality at 100 g/ha [5]: 83%; pest or weed control at 1 µg/cm2 [2]: 100%
6 | C[C@H](NC(=O)c1cc(OC(F)F)cc(OC(F)F)c1)c1ncnn1-c1cnc(C(=O)NCC#N)cn1 [Example I-089] |  | 100 | 
7 | C[C@H](NC(=O)c1cc(OC(F)(F)F)cc(S(C)(=O)=O)c1)c1nc(C2CC2)nn1-c1cnc(C(N)=O)cn1 [Example I-095] |  | 100 | 
8 | Cc1nc([C@H](C)NC(=O)c2cc(OC(F)(F)F)cc(C3(C)CC3)c2)n(-c2cnc(C(=O)N(C)C)cn2)n1 [Example I-053] | 100 |  | efficacy (ticks dead or moribund) [1]: 100%; efficacy (fleas dead or moribund) [3]: 80%
9 | CNC(=O)c1cnc(-n2nc(C)nc2[C@H](C)NC(=O)c2cc(OC(F)(F)F)cc(C3(C#N)CC3)c2)cn1 [Example I-054] |  | 100 | 
10 | CCNC(=O)c1cnc(-n2nc(C)nc2[C@H](C)NC(=O)c2cc(OC(F)(F)F)cc(OC(F)(F)F)c2)cn1 [Example I-035] |  |  | mortality at 100 g/ha [5]: 100%; pest or weed control at 1 µg/cm2 [2]: 100%
11 | C[C@H](NC(=O)c1cc(Cl)cc(S(C)(=O)=O)c1)c1ncnn1-c1cnc(C(=O)NCC#N)cn1 [Example I-088] |  | 100 | 
12 | Cc1nc([C@H](C)NC(=O)c2cc(OC(F)(F)F)cc(C3CC3)c2)n(-c2cnc(C(N)=O)cn2)n1 [Example I-046] | 100 | 100 | 
13 | Cc1nc([C@H](C)NC(=O)c2cc(OC(F)(F)F)cc(C3(C#N)CC3)c2)n(-c2cnc(C(=O)N(C)C)cn2)n1 [Example I-055] | 100 |  | efficacy (ticks dead or moribund) [1]: 80%; efficacy (fleas dead or moribund) [3]: 100%
14 | C[C@H](NC(=O)c1cc(OC(F)(F)C(F)F)cc(S(C)(=O)=O)c1)c1ncnn1-c1cnc(C(=O)NCC#N)cn1 [Example I-096] |  | 100 | 
15 | C[C@H](NC(=O)c1cc(OC(F)F)cc(OC(F)F)c1)c1nc(C2CC2)nn1-c1cnc(C(N)=O)cn1 [Example I-070] |  | 100 | 
16 | CCNC(=O)c1cnc(-n2nc(C)nc2[C@H](C)NC(=O)c2cc(C(F)(F)F)cc(C(F)(F)F)c2)cn1 [Example I-013] |  |  | mortality at 100 g/ha [5]: 100%; pest or weed control at 1 µg/cm2, 100 g/ha ([1]; Rhipicephalus sanguineus, read-out: efficacy (ticks dead or moribund)): 100%; pest or weed control at 1 µg/cm2 [2]: 100%

Row | Structure (SMILES) | efficacy (larvae dead or moribund) [2] [%] | efficacy (seedlings grown) [4] [%] | further results
17 | C[C@H](NC(=O)c1cc(OC(F)(F)F)cc(OC(F)(F)F)c1)c1ncnn1-c1cnc(C(=O)N(C)CC#N)cn1 [Example I-105] |  | 100 | 
18 | Cc1nc([C@H](C)NC(=O)c2cc(OC(F)(F)F)cc(S(C)(=O)=O)c2)n(-c2cnc(C(=O)NCC#N)cn2)n1 [Example I-087] |  | 100 | 
19 | C[C@H](NC(=O)c1cc(C(F)(F)F)cc(C(F)(F)F)c1)c1nc(C2CC2)nn1-c1cnc(C(=O)NC2CC2)cn1 [Example I-056] | 100 | 100 | 
20 | Cc1nc([C@H](C)NC(=O)c2cc(OC(F)(F)F)cc(OC(F)(F)F)c2)n(-c2cnc(C(=O)N(C)C)cn2)n1 [Example I-037] | 100 | 100 | efficacy (ticks dead or moribund) [1]: 100%; efficacy (fleas dead or moribund) [3]: 100%
21 | C[C@H](NC(=O)c1cc(Br)cc(S(F)(F)(F)(F)F)c1)c1nc(C2CC2)nn1-c1cnc(C(N)=O)cn1 [Example I-075] |  | 100 | 
22 | C[C@H](NC(=O)c1cc(OC(F)(F)F)cc(S(C)(=O)=O)c1)c1ncnn1-c1cnc(C(=O)N(C)CC#N)cn1 [Example I-104] |  | 100 | 
23 | C[C@H](NC(=O)c1cc(Br)cc(C(C)(C)F)c1)c1ncnn1-c1cnc(C(N)=O)cn1 [Example I-063] |  | 100 | 
24 | C[C@H](NC(=O)c1cc(C(F)(F)F)cc(C(F)(F)F)c1)c1nc(C2CC2)nn1-c1cnc(C(N)=O)cn1 [Example I-057] |  | 100 | 
25 | C[C@H](NC(=O)c1cc(OC(F)(F)F)cc(OC(F)(F)F)c1)c1ncnn1-c1cnc(C(=O)N(C)C)cn1 [Example I-025] | 100 | 100 | efficacy (ticks dead or moribund) [1]: 100%; efficacy (fleas dead or moribund) [3]: 100%
26 | C[C@H](NC(=O)c1cc(Cl)cc(S(F)(F)(F)(F)F)c1)c1nc(C2CC2)nn1-c1cnc(C(N)=O)cn1 [Example I-074] |  | 80 | 
27 | C[C@H](NC(=O)c1cc(OC(F)(F)F)cc(OC(F)(F)F)c1)c1nc(C2CC2)nn1-c1cnc(C(N)=O)cn1 [Example I-062] | 100 | 100 | 
28 | Cc1nc([C@H](C)NC(=O)c2cc(OC(F)(F)F)cc(OC(F)(F)F)c2)n(-c2cnc(C(=O)N(C)CC#N)cn2)n1 [Example I-101] |  | 100 | 
29 | C[C@H](NC(=O)c1cc(C(F)(F)F)cc(C(F)(F)F)c1)c1nc(C2CC2)nn1-c1cnc(C(=O)N(C)C2CC2)cn1 [Example I-058] |  | 100 | 
30 | C[C@H](NC(=O)c1cc(OC(F)(F)F)cc(S(C)(=O)=O)c1)c1ncnn1-c1cnc(C(=O)NCC#N)cn1 [Example I-086] |  | 100 | 
31 | CNC(=O)c1cnc(-n2nc(C)nc2[C@H](C)NC(=O)c2cc(OC(F)(F)F)cc(C3CC3)c2)cn1 [Example I-045] | 100 | 100 | efficacy (ticks dead or moribund) [1]: 100%; efficacy (fleas dead or moribund) [3]: 100%
